Biological target: T1, mGluR5 (Homo sapiens, UniProt P41594)
T1 construct: expressed in transfected cells
Test: inhibition of the glutamate (agonist) induced elevation of the inositol phosphate turnover
Assay type: cell-based
Settings: inhibition of glutamate induced elevation of inositol phosphate turnover at 0.1 μM
From the text: This can be determined in vitro for example at recombinant human metabotropic glutamate receptors, especially PLC-coupled subtypes thereof such as mGluR5, using different procedures like, for example, measurement of the inhibition of the agonist induced elevation of intracellular Ca^2+ concentration in accordance with L. P. Daggett et al., Neuropharm. Vol. 34, pages 871-886 (1995), P. J. Flor et al., J. Neurochem. Vol. 67, pages 58-63 (1996) or by determination to what extent the agonist induced elevation of the inositol phosphate turnover is inhibited as described by T. Knoepfel et al., Eur. J. Pharmacol. Vol. 288, pages 389-392 (1994), L. P. Daggett et al., Neuropharm. Vol. 67, pages 58-63 (1996) and references cited therein. Isolation and expression of human mGluR subtypes are described in U.S. Pat. No. 5,521,297. Selected agents of the invention show IC50 values for the inhibition of the agonist (e.g. glutamate or quisqualate) induced elevation of intracellular Ca2+ concentration or the agonist (e.g. glutamate or quisqualate) induced inositol phosphate turnover, measured in recombinant cells expressing hmGluR^5a of about 0.1 nM to about 50 μM.
Activity of compounds of the present invention was examined by determination to what extent the agonist induced elevation of the inositol phosphate turnover is inhibited as described by T. Knoepfel et al., Eur. J. Pharmacol. Vol. 288, pages 389-392 (1994), L. P. Daggett et al., Neuropharm. Vol. 67, pages 58-63 (1996) and references cited therein.
The table below represents percentages of inhibition of the glutamate induced elevation of the inositol phosphate turnover at a concentration of 0.1 μM.

T1 sequence (P41594 21-1180 isoform P41594-2 limits assumed): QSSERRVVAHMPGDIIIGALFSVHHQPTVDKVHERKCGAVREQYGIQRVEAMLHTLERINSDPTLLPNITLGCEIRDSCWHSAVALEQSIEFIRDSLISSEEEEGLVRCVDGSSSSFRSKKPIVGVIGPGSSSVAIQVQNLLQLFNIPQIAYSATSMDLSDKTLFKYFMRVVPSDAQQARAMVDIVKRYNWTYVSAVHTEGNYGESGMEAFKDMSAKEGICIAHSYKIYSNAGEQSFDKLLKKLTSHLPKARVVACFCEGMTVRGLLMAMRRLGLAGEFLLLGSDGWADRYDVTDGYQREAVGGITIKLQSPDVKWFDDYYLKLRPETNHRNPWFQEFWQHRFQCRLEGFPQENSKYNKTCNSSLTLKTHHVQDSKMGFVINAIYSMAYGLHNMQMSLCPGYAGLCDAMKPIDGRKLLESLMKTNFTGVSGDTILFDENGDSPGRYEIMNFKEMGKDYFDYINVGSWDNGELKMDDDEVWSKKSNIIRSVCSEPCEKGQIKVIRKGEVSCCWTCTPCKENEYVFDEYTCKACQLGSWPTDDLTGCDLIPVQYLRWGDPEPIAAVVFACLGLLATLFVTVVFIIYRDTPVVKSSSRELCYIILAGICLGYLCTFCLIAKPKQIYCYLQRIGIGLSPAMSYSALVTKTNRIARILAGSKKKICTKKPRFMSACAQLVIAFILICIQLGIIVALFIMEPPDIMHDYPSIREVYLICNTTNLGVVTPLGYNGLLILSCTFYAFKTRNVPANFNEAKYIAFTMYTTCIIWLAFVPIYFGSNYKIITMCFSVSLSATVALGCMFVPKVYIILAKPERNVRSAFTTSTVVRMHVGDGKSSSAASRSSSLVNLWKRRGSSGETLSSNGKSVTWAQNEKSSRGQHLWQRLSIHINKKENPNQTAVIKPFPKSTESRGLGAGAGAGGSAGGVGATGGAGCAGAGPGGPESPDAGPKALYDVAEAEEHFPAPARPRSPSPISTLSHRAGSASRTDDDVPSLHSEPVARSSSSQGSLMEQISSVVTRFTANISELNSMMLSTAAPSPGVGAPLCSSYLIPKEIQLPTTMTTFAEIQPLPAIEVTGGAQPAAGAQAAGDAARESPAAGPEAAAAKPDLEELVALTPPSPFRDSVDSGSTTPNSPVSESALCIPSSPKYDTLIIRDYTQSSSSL

Structure (SMILES)	inhibition at 0.1 µM
CCCCCn1c(-c2cnc(Nc3ccc(C)nc3)c(Cl)c2)nc2ccccc21 [Example 19, [3-Chloro-5-(1-pentyl-1H-benzoimidazol-2-yl)-pyridin-2-yl]-(6-methyl-pyridin-3-yl)-amine]	57%
Cc1ccc(Nc2ncc(-c3nc4ccccc4n3CC(C)C)cc2Cl)cn1 [Example 20, [3-Chloro-5-(1-isobutyl-1H-benzoimidazol-2-yl)-pyridin-2-yl]-(6-methyl-pyridin-3-yl)-amine]	98%
CCCn1c(-c2cnc(Nc3ccc(C)nc3)c(Cl)c2)nc2cc(C(F)(F)F)ccc21 [Example 21, [3-Chloro-5-(1-propyl-5-trifluoromethyl-1H-benzoimidazol-2-yl)-pyridin-2-yl]-(6-methyl-pyridin-3-yl)-amine]	65%
CCCn1c(-c2cnc(Nc3ccc(C)nc3)c(Cl)c2)nc2cc(C)ccc21 [Example 22, [3-Chloro-5-(5-methyl-1-propyl-1H-benzoimidazol-2-yl)-pyridin-2-yl]-(6-methyl-pyridin-3-yl)-amine]	97%
CCCn1c(-c2cnc(Nc3ccc(C)nc3)c(Cl)c2)nc2ccc(C)cc21 [Example 23, [3-Chloro-5-(6-methyl-1-propyl-1H-benzoimidazol-2-yl)-pyridin-2-yl]-(6-methyl-pyridin-3-yl)-amine]	84%
CCCn1c(-c2cnc(Nc3ccc(C)nc3)c(Cl)c2)nc2cccc(C)c21 [Example 24, [3-Chloro-5-(7-methyl-1-propyl-1H-benzoimidazol-2-yl)-pyridin-2-yl]-(6-methyl-pyridin-3-yl)-amine]	101%
CCCn1c(-c2cnc(Nc3ccc(C)nc3)c(Cl)c2)nc2c(C)cccc21 [Example 25, [3-Chloro-5-(4-methyl-1-propyl-1H-benzoimidazol-2-yl)-pyridin-2-yl]-(6-methyl-pyridin-3-yl)-amine]	97%
CCCn1c(-c2cnc(Nc3ccc(C)nc3)c(Cl)c2)nc2ccc(C)c(C)c21 [Example 26, [3-Chloro-5-(6,7-dimethyl-1-propyl-1H-benzoimidazol-2-yl)-pyridin-2-yl]-(6-methyl-pyridin-3-yl)-amine]	98%
CCCn1c(-c2cnc(Nc3ccc(C)nc3)c(Cl)c2)nc2c(C)ccc(C)c21 [Example 29, [3-Chloro-5-(4,7-dimethyl-1-propyl-1H-benzoimidazol-2-yl)-pyridin-2-yl]-(6-methyl-pyridin-3-yl)-amine]	99%
CCCn1c(-c2cnc(Nc3ccc(C)nc3)c(Cl)c2)nc2cc(F)c(F)cc21 [Example 30, [3-Chloro-5-(5,6-difluoro-1-propyl-1H-benzoimidazol-2-yl)-pyridin-2-yl]-(6-methyl-pyridin-3-yl)-amine]	99%
Cc1ccc(Nc2ncc(-c3nc4cccc5c4n3CCC5)cc2Cl)cn1 [Example 31, [3-Chloro-5-(5,6-dihydro-4H-imidazo[4,5,1-ij]quinolin-2-yl)-pyridin-2-yl]-(6-methyl-pyridin-3-yl)-amine]	90%
CCCn1c(-c2cnc(Nc3ccc(C)nc3)c(Cl)c2)nc2cc(I)cc(Cl)c21 [Example 34b, [3-Chloro-5-(7-chloro-5-iodo-1-propyl-1H-benzoimidazol-2-yl)-pyridin-2-yl]-(6-methyl-pyridin-3-yl)-amine]	97%
CCCn1c(-c2cnc(Nc3ccc(C)nc3)c(Cl)c2)nc2cc(Cl)ccc21 [Example 45, [3-Chloro-5-(5-chloro-1-propyl-1H-benzoimidazol-2-yl)-pyridin-2-yl]-(6-methyl-pyridin-3-yl)-amine]	91%
CCCn1c(-c2cnc(Nc3ccc(C)nc3)c(Cl)c2)nc2c(Cl)cccc21 [Example 47, [3-Chloro-5-(4-chloro-1-propyl-1H-benzoimidazol-2-yl)-pyridin-2-yl]-(6-methyl-pyridin-3-yl)-amine]	100%
CCCn1c(-c2cnc(Nc3ccc(C)nc3)c(Cl)c2)nc2cccc(Cl)c21 [Example 48, [3-Chloro-5-(7-chloro-1-propyl-1H-benzoimidazol-2-yl)-pyridin-2-yl]-(6-methyl-pyridin-3-yl)-amine]	101%
CCCn1c(-c2cnc(Nc3ccc(Cl)cc3)c(Cl)c2)nc2cccc(Cl)c21 [Example 52, [3-Chloro-5-(7-chloro-1-propyl-1H-benzoimidazol-2-yl)-pyridin-2-yl]-(4-chloro-phenyl)-amine]	99%
CCCn1c(-c2cnc(Nc3ccccc3F)c(Cl)c2)nc2cccc(Cl)c21 [Example 53, [3-Chloro-5-(7-chloro-1-propyl-1H-benzoimidazol-2-yl)-pyridin-2-yl]-(2-fluoro-phenyl)-amine]	95%
CCCn1c(-c2cnc(Nc3ccc(F)cc3)c(Cl)c2)nc2cccc(Cl)c21 [Example 54, [3-Chloro-5-(7-chloro-1-propyl-1H-benzoimidazol-2-yl)-pyridin-2-yl]-(4-fluoro-phenyl)-amine]	97%
CCCn1c(-c2cnc(Nc3cccc(F)c3)c(Cl)c2)nc2cccc(Cl)c21 [Example 55, [3-Chloro-5-(7-chloro-1-propyl-1H-benzoimidazol-2-yl)-pyridin-2-yl]-(3-fluoro-phenyl)-amine]	63%
CCCn1c(-c2cnc(Nc3ccc(C#N)cc3)c(Cl)c2)nc2cccc(Cl)c21 [Example 56, 4-[3-Chloro-5-(7-chloro-1-propyl-1H-benzoimidazol-2-yl)-pyridin-2-ylamino]-benzonitrile]	100%
CCCn1c(-c2cnc(Nc3ccc(F)c(F)c3)c(Cl)c2)nc2cccc(Cl)c21 [Example 57, [3-Chloro-5-(7-chloro-1-propyl-1H-benzoimidazol-2-yl)-pyridin-2-yl]-(3,4-difluoro-phenyl)-amine]	93%
CCCn1c(-c2cnc(Nc3cccc(F)c3F)c(Cl)c2)nc2cccc(Cl)c21 [Example 58, [3-Chloro-5-(7-chloro-1-propyl-1H-benzoimidazol-2-yl)-pyridin-2-yl]-(2,3-difluoro-phenyl)-amine]	40%
CCCn1c(-c2cnc(Nc3ccncc3)c(Cl)c2)nc2cccc(Cl)c21 [Example 59, [3-Chloro-5-(7-chloro-1-propyl-1H-benzoimidazol-2-yl)-pyridin-2-yl]-pyridin-4-yl-amine]	51%
CCCn1c(-c2cnc(Nc3ccc(C)nn3)c(Cl)c2)nc2cccc(Cl)c21 [Example 60, [3-Chloro-5-(7-chloro-1-propyl-1H-benzoimidazol-2-yl)-pyridin-2-yl]-(6-methyl-pyridazin-3-yl)-amine]	87%
CCCn1c(-c2cnc(Nc3ccc4nccnc4c3)c(Cl)c2)nc2cccc(Cl)c21 [Example 61, [3-Chloro-5-(7-chloro-1-propyl-1H-benzoimidazol-2-yl)-pyridin-2-yl]-quinoxalin-6-yl-amine]	96%
CCCn1c(-c2cnc(Nc3cnc(C)cn3)c(Cl)c2)nc2cccc(Cl)c21 [Example 62, [3-Chloro-5-(7-chloro-1-propyl-1H-benzoimidazol-2-yl)-pyridin-2-yl]-(5-methyl-pyrazin-2-yl)-amine]	99%
CCCn1c(-c2cnc(Nc3cnc4ccccc4c3)c(Cl)c2)nc2cccc(Cl)c21 [Example 63, [3-Chloro-5-(7-chloro-1-propyl-1H-benzoimidazol-2-yl)-pyridin-2-yl]-quinolin-3-yl-amine]	28%

— patent US20090105266A1, “Organic compounds” (priority 2007, published 2009)
